Test results: patent US12599666B2, “Photolytic compounds and triplet-triplet annihilation mediated photolysis” (University of Massachusetts, priority 2019, dated 2026)
“And” between values parts separate entries of the source, which are not always exact repeats. Equal values may be shown once. Read-outs that look alike come from different tables or passages of the source. Marks after values point to notes of the source that are not given here.

Columns and labels:
[1] = Photolytic molecule experiment: TTAP photolytic reaction in solution under LED, HPLC yield; assay type: physicochemical
Description: Photolytic molecule experiment: The NIR LED (720 nm), far red LED (650 nm), green LED (530 nm), blue LED (476 nm) and deep blue (455 nm) were used for photolytic reactions. […] Then, the solution was excited with a LED (20 mW/cm^2) at 37° C. After the photolytic reaction, the raw product was dried and re-dissolved in CH3CN/H2O=(2/1, v/v) and HPLC was used to analyze the yield of product.

[2] = Photophysical parameters of Sen and PPGs (UV-vis absorption, emission, energy levels); assay type: physicochemical; parameters: λabs maximum absorption wavelength / λem maximum emission wavelength: unit not given here; conditions: for λabs maximum absorption wavelength / λem maximum emission wavelength / ξ molar extinction coefficient: in toluene, 10 μM; for T1 triplet excited state: photosensitizers (Sen), from maximum phosphorescence emission
Description: Characterization: ^1H NMR spectra were recorded with a Bruker 500 MHz spectrometer. UV-Vis spectra were recorded on an Agilent Cary-5 spectrophotometer. Steady-state fluorescence spectra were measured on a HITACHI F-7000 spectrometer. […] The sample for TEM measurement was prepared by dropping the solution onto a carbon-coated copper grid following negative staining with 2.0% (w/v) phosphotungstic acid. The particle size and size distribution were measured by using dynamic light scattering (DLS) on a Malvern Nano-ZS particle size analyzer, excitation wavelength 532 nm. All samples in the Stern-Volmer quenching plots experiments were deaerated with argon for ca. 15 min before measurement and the gas flow was maintained during the measurements. For the TTA upconversion spectra measurement, the diode pumped solid-state laser (650 nm, continues wave, CW, Hi-Teach company, China) was used as the excitation light source and a modified spectrofluorometer was used to record the upconversion spectra. For the prodrug photolytic experiment, an All LED (Mightex Company) was used as the excitation light source.
From the absorption and emission spectra of Sen and PPGs, the triplet and singlet energy levels of PPG and Sen can be calculated. The maximum emission wavelength of phosphorescence is the triplet excited state energy level (T1) of the Sen. The maximum emission wavelength of fluorescence is the singlet excited state energy level (S1) of the PPGs. Moreover, according to the literature, we know the triplet excited energy levels of PPGs. The detail information is always in […]

[3] = PPGs, from the literature, cited from earlier work
[4] = cited from earlier work
[5] = Photocleavage quantum yield / photolytic quantum efficiency calculation; conditions: for ε2 × Φp: ε (Sen) × Φp (PPGs); ηp (TTAP): PtOEP as sensitizer; for ε1 × Φp: ε (PPGs) × Φp (PPGs); ηp (direct): direct short wavelength illumination
Description: We compared photolytic quantum efficiency of the widely used PPG of Cou by using the UCNPs as phototransducer.

[6] = Stern-Volmer photoluminescence quenching of photosensitizers by PPGs-X; assay type: physicochemical
Description: The Stern-Volmer quenching plots experiment (ksv): photoluminescence of photosensitizers (PtTNP, PdTPBP, PtOEP, and Ir(ppy)3) in the presence of different concentrations of PPGs (BDP, perylene, anthracene and coumarin). The mixed solutions were degassed for at least 15 min with Ar in toluene. The ksv constants were calculated with eq 1, where 1o and It stand for photoluminescence intensity of photosensitizer in the absence of PPGs-X and the photoluminescence intensity of photosensitizer in the presence PPGs-X. Q is the concentration of PPGs-X. Biomolecular quenching constants (kq) were calculated by eq2. The Tr is the phosphorescence lifetime of photosensitizer in argon.

[7] = TTA upconversion quantum yield; assay type: physicochemical; conditions: paired with PtOEP
Description: The upconversion quantum yields (ΦUC): The upconversion quantum yields were calculated with the eq 3, where ΦUC and Φstd stand for upconversion luminescence quantum yield of sample TTA-UC and fluorescence quantum yield of reference compounds, respectively. Aunk and Astd stand for absorbance of the TTA-UC and reference compound, respectively. Iunk and Istd stand for integrated upconversion luminescence intensity of the TTA-UC and fluorescence intensity of reference compounds, respectively. ηunk and μstd stand for the refractive index of water. The equation is multiplied by a factor of 2 to make the maximum quantum yield of two unified emitters.
The upconversion experiments were deaerated with argon for ca. 15 min before measurement and the argon gas flow was kept during the measurement.

[8] = PdTPBP, far-red LED light (20 mW/cm^2, 650 nm)
[9] = PtTNP, NIR LED light (20 mW/cm^2, 720 nm, 1 h)
[10] = PtOEP, green LED light (20 mW/cm^2, 532 nm)
[11] = One photon: 120 mW/cm^2, λ > 400 nm
[12] = UCNPs as photo transducers, 570 mW cm^−2, λ = 980 nm

## CC(C)Cc1ccc(C(C)C(=O)OCc2ccc3c4cccc5cccc(c6cccc2c63)c54)cc1 (centres unmarked) [compound 18]
[1]; [8]
  photolytic yield: 71.6%
[1]; [9]
  photolytic yield: 19.4%

## CC(C)(C)OC(=O)N[C@@H](CSSC(C)(C)C)C(=O)OCc1ccc2c3cccc4cccc(c5cccc1c52)c43 [compound 14]
[1]; [8]
  photolytic yield: 81.2%
[1]; [9]
  photolytic yield: 23.3%

## CCCCNC(=O)OCc1c2ccccc2cc2ccccc12 [compound 4]
[1]; [10]
  photolytic yield: 51.0%

## CCCCNC(=O)OCc1ccc2c3cccc4cccc(c5cccc1c52)c43 [compound 10]
[1]; [8]
  photolytic yield: 52.4%
[1]; [9]
  photolytic yield: 29.3%

## [Pd+2].c1ccc(-c2c3nc(c(-c4ccccc4)c4[n-]c(c(-c5ccccc5)c5nc(c(-c6ccccc6)c6[n-]c2c2ccccc62)-c2ccccc2-5)c2ccccc42)-c2ccccc2-3)cc1 [PdTPBP, meso-tetraphenyltetrabenzoporphine palladium complex]
[2]
  λabs maximum absorption wavelength: 630
  λem maximum emission wavelength: 790
  ξ molar extinction coefficient: 11.0 10^4 M^−1 cm^−1
  T1 triplet excited state: 1.55 eV

## COc1ccc2c(c1)c(CC(=O)OCc1ccc3c4cccc5cccc(c6cccc1c63)c54)c(C)n2C(=O)c1ccc(Cl)cc1 [compound 17]
[1]; [8]
  photolytic yield: 51.7%
[1]; [9]
  photolytic yield: 9.2%

## CCC1=C(CC)c2cc3[n-]c(cc4nc(cc5[n-]c(cc1n2)c(CC)c5CC)C(CC)=C4CC)c(CC)c3CC.[Pt+2] [PtOEP, platinum octaethylporphyrin]
[2]
  λabs maximum absorption wavelength: 533
  λem maximum emission wavelength: 647
  ξ molar extinction coefficient: 7.0 10^4 M^−1 cm^−1
  T1 triplet excited state: 1.92 eV

## O=C(CCCc1ccc(N(CCCl)CCCl)cc1)OCc1ccc2c3cccc4cccc(c5cccc1c52)c43 [compound 19]
[1]; Compound 19 only, 720 nm LED, 1 h
  Yield (HPLC yield): No reaction
[1]; Compound 19 only, argon, 720 nm LED, 1 h
  Yield (HPLC yield): No reaction
[1]; Compound 19 only, argon, red light, 2 h
  Yield (HPLC yield): No reaction
[1]; Compound 19 only, red light, 2 h
  Yield (HPLC yield): No reaction
[1]; PdTPBP, air, red light, 2 h
  Yield (HPLC yield): 7
[1]; PdTPBP, argon, dark, 2 h
  Yield (HPLC yield): No reaction
[1]; PdTPBP, argon, red light, 1 h
  Yield (HPLC yield): 72.8
[1]; PdTPBP, argon, red light, 2 h
  Yield (HPLC yield): 67.0
[1]; [8]
  photolytic yield: 72.8%
[1]; [9]
  photolytic yield: 30.4%
[1]; PtTNP, air, 720 nm LED, 1 h
  Yield (HPLC yield): No reaction
[1]; PtTNP, argon, dark, 1 h
  Yield (HPLC yield): No reaction
[1]; PtTNP, argon, 720 nm LED, 1 h
  Yield (HPLC yield): 30.4

## CC(C)COC(=O)OCc1ccc2c3cccc4cccc(c5cccc1c52)c43 [compound 9]
[1]; [8]
  photolytic yield: 65.3%
[1]; [9]
  photolytic yield: 27.8%

## O=c1ccc2ccccc2o1 [Coumarin, coumarin]
[3]
  T1 triplet excited state: 2.18 eV
[4]; [11]
  Photocleavage quantum yield: 0.13
  Photolytic efficiency (ε × Φ): 806
[4]; [12]
  Photocleavage quantum yield: 0.13
[5]; [12]
  Overall photocleavage quantum yield; η (upconversion): <0.02873

## CC(C)COC(=O)OCc1c2ccccc2cc2ccccc12 [compound 3]
[1]; [10]
  photolytic yield: 72.3%

## CC(C)(C)OC(=O)NCC(=O)OCc1ccc2c3cccc4cccc(c5cccc1c52)c43 [compound 12]
[1]; [8]
  photolytic yield: 89.2%
[1]; [9]
  photolytic yield: 29.6%

## CC(C)(C)OC(=O)NCC(=O)OCc1c2ccccc2cc2ccccc12 [compound 5]
[1]; [10]
  photolytic yield: 58.4%

## anthracene [reference compound]
[3]
  T1 triplet excited state: 1.77 eV

## CC(=O)OCc1c2ccccc2cc2ccccc12 [compound 2]
[1]; PtOEP, dark, argon, 1 h
  Yield (HPLC) of photolytic reaction: No reaction
[1]; [10]
  photolytic yield: 83%
[1]; PtOEP, light, air, 1 h
  Yield (HPLC) of photolytic reaction: Trace
[1]; PtOEP, light, argon, 1 h
  Yield (HPLC) of photolytic reaction: 83.2%
[1]; compound only (no PtOEP), green light, argon, 1 h
  Yield (HPLC) of photolytic reaction: No reaction
[6]; PtOEP
  quenching of the photoluminescence of PtOEP: significant quenching
[6]; PtOEP as sensitizer
  ksv (bimolecular quenching constant): 2.43 × 10^9 j M^−1S^−1
  ksv Stern-Volmer quenching constant: 219000 J/M
[7]
  upconversion quantum yield: 8.7%
[2]; PPGs
  2 × T1 − S1: 0.53 eV
[2]; PPGs, from maximum fluorescence emission
  S1 singlet excited state: 3.02 eV
[2]
  λabs maximum absorption wavelength: 366
  λem maximum emission wavelength: 411
  ξ molar extinction coefficient: 1.1 10^4 M^−1 cm^−1
[3]; listed as An
  T1 triplet excited state: 1.77 ^n eV and 1.77 eV
[5]; PtOEP
  increase of ηp (TTAP) over ηp (direct): 638%
[5]
  ε2 × Φp: ε (Sen) × Φp (PPGs); ηp (TTAP): 6230 ^j
  ε1 × Φp: ε (PPGs) × Φp (PPGs); ηp (direct): 979
[5]; listed as An
  ε2 × Φp: ε (Sen) × Φp (PPGs); ηp (TTAP): 6230
  ε1 × Φp: ε (PPGs) × Φp (PPGs); ηp (direct): 976

## c1cc2cccc3c4cccc5cccc(c(c1)c23)c54 [Perylene, perylene]
[3]
  T1 triplet excited state: 1.52 eV
[4]; 110 mW/cm^2 Hg lamp, >410 nm
  Photocleavage quantum yield: 0.093
  Photolytic efficiency (ε × Φ): 3627
[4]; 125 WHg lamp, ≥410 nm
  Photocleavage quantum yield: 0.093
  Photolytic efficiency (ε × Φ): 3627
[4]; TTAP, 20 mW/cm^2, λ = 650 nm
  Photocleavage quantum yield: 0.093
[5]; TTAP, 20 mW/cm^2, λ = 650 nm
  Overall photocleavage quantum yield: 12400

## COc1ccc2cc(C(C)C(=O)OCc3ccc4c5cccc6cccc(c7cccc3c74)c65)ccc2c1 (centres unmarked) [compound 16]
[1]; [8]
  photolytic yield: 78.5%
[1]; [9]
  photolytic yield: 17.4%
